Measurements reported in patent US20110245537A1, “L-carnitine calcium fumarate, preparation method and application for the same” (Liaoning Konepnutra Co., Ltd, priority 2009, published 2011).

Key:
[1] = cited from earlier work
[2] = hygroscopicity: caking or sticking on exposure to air; assay type: physicochemical; conditions: 25° C., relative humidity of 60±5%, 24 hours exposure to air
Text: The obtained L-carnitine calcium fumarate is in uniform powder form with good fluidity, more than 98% of which is smaller than 40 mesh size. […] The product has a calcium content of 6.76% with good non-hygrosopicity.
The obtained L-carnitine calcium fumarate is in uniform powder form and has good fluidity, greater than 98% of which is smaller than 40 mesh in granular size. […] The product has a calcium content of 9.28%, with better non-hygrosopicity.

C[N+](C)(C)C[C@H](O)CC(=O)[O-].O=C(O)C(O)C(O)C(=O)O [L-carnitine tartrate, L-carnitine L-tartrate]
relative humidity at which the salt will deliquesce [1]: over 60%

L-Carnitine Calcium Fumarate (1:2:1) [Example 2]
caking or sticking phenomena (non-hygroscopicity) [2]: no caking or sticking phenomena

L-Carnitine Calcium Fumarate (2:2:1) [Example 1]
caking or sticking phenomena (non-hygroscopicity) [2]: no caking or sticking phenomena
